Assays:
SH-SY5Y cells = test: RT-PCR gene expression analysis of differentiated SH-SY5Y cells; type: cell-based, human; conditions: RT-PCR mRNA, four replicas, two independent experiments
Excerpt: Figure 4 Neuronal differentiation and polarization genes stimulated by BDNF and d-bdnf mimetic peptide. (A) Schematic timeline of the experiment. As non-differentiated control, we used untreated cells seeded at the same density (non-diff ctrl, white bars). As a control for the expression of neuronal polarization genes, we used cells stopped at d5 (non-pol ctrl). (B) RT-PCR analysis of the mRNA expression levels of neuronal differentiation markers (NTRK2, LAMC1, and NEFM) and polarization markers (GAP43, MAP2, and MAPT) induced by BDNF and d-bdnf with respect to non-diff and non-pol ctrl samples, respectively. Data are expressed as fold changes with respect to the average ctrl value set to 1, and the mean ± SEM of four replicas from two independent experiments are reported (****p < 0.0001, ***p < 0.001, **p < 0.01, and *p < 0.05 according to the one-way ANOVA with Bonferroni’s multiple comparison test).
Figure 6 Modulation of d-bdnf neurotrophic activity by Zn^2+ ion. (A) Neurite outgrowth assay for d-bdnf-Zn^2+ conjugate. The ctrl and d-bdnf samples are the same as in Figure 2C, here reported as a reference. Data represent the mean ± SD of fields pooled from two independent replicas. (****p < 0.0001, according to the one-way ANOVA with Dunnett’s multiple comparison test). (B) RT-PCR analysis of the mRNA expression levels of the marker genes (as described in Figure 3B). Data are expressed as fold changes with respect to the average ctrl value set to 1, and the mean ± SEM of four replicas from two independent experiments are reported (**p < 0.01, *p < 0.05, vs ctrl; #p < 0.05 vs d-bdnf, according to one-way ANOVA with Bonferroni’s multiple comparison test). […]
RT-PCR analysis of SH-SY5Y differentiation
At the end of each differentiation treatment and relative controls, cells were col lected, and total RNA was extracted using the Rneasy Mini Kit (Qiagen). The RNA concentration and purity were checked at the Nanodrop instrument (Thermofisher). cDNA synthesis was performed with 1 µg of RNA using i-Script cDNA synthesis kit (BioRad). Real-time PCR reactions consisted of 10 µL of SsoAdvanced™ Universal SYBR® Green Supermix - Bio-Rad, 0.5 µL of both 10 µM forward and reverse primers, 5 µL of cDNA (50 ng), and 4 µL of H2O. The primer sequences and the product size […]
HPRT1 and NEFM primers were purchased by Biorad (qHsaCID0016375 and qHsaCED0043021, Bio-Rad). The mRNA levels for each sample were normalized against GAPDH and HPRT1 mRNA levels, and the relative expression was calculated by using the methods of the […]

[1] = potentiometric titration, Zn^2+ complex stability constants; type: binding; conditions: 298 K, 0.1 M KNO3, metal/ligand 0.9:1 to 2.2:1
Procedure: Potentiometric measurements were carried out to give insight into the coordination environment of Zn^2+ bound to the d-bdnf peptide (Figure S5). […] The four protonation equilibria of the aspartic and glutamic residues partly overlap but, in agreement with the literature data, the aspartic β-carboxylic group is more acidic than glutamic γ-carboxylic one.[48] The potentiometric titrations were carried out exploring 0.9:1 and 2.2:1 metal to ligand molar ratio. […] The peptide forms two complex species, [ZnLH] and [ZnL]. The first one is the predominant at pH = 6, and the calculated stability constant value [logK(111) = logβ(111) – logK(011) = 5.71] indicates the involvement of three nitrogen atoms in the metal coordination environment. The [ZnL] species display a stability constant value, logβ = 7.15, higher than that of protonated species indicative of the involvement of a further nitrogen atom in the metal binding mode. In this complex species, Zn^2+ is bound to four nitrogen atoms with the involvement of two amino and two imidazole (2NH2,2NIm coordination mode). […]
Potentiometric measurements
Potentiometric titrations were carried out on a Titrando 905 automatic, using a combined glass-Ag/AgCl electrode (Metrohm, Switzerland). […] To avoid systematic errors and verify reproducibility, the EMF values of each experiment were recorded at different time intervals. The data were analyzed by […]

Question: Which MAPT expression (SH-SY5Y cells; axon marker, d-bdnf vs BDNF) does the source give for “HSDPARRGELSVC-C-VSLEGRRAPDSH (disulfide) [d-bdnf]” here?
Answer: The MAPT expression was “to a similar extent to BDNF”.

Question: What about the MAP2 expression (SH-SY5Y cells; dendrite marker, d-bdnf vs BDNF) of the same substance?
Answer: Its MAP2 expression is “to a similar extent to BDNF”.

Question: And the LAMC1 expression (SH-SY5Y cells; d-bdnf vs BDNF)?
Answer: Its LAMC1 expression is “to promote, to a similar extent of BDNF, the expression of NTRK2 and LAMC1 genes”.

Question: What about the NTRK2 expression (SH-SY5Y cells; d-bdnf vs BDNF) of the same substance?
Answer: The NTRK2 expression was “to promote, to a similar extent of BDNF, the expression of NTRK2 and LAMC1 genes”.

Question: What about the GAP43 gene expression (SH-SY5Y cells) of the same substance?
Answer: Its GAP43 gene expression is “not significantly increased by either the d-bdnf doses tested”.

Question: And the NEFM gene expression (SH-SY5Y cells)?
Answer: The NEFM gene expression was “significantly increased only at the highest d-bdnf dose (10 μM)”.

Question: What about the “log (Zn2+ complex stability constant)” value ([1]; species ZnLH 110, [ZnL] (2 His, 2 NH2)) of the same substance?
Answer: Its value is 7.15 (3).

Question: And the “log (Zn2+ complex stability constant)” value ([1]; species ZnLH 111 (2 His, NH2))?
Answer: Its value is 13.30 (2).

Reference: article PMC9732821, “Neurotrophic Activity and Its Modulation by Zinc Ion of a Dimeric Peptide Mimicking the Brain-Derived Neurotrophic Factor N-Terminal Region” (ACS Chemical Neuroscience, 2022)
